Reference: patent US8686150B2 (Sanofi, priority 2011, dated 2014)

Each compound was assayed against T1, human full-length recombinant PKC βII (Homo sapiens, UniProt P05771) (assay: Determination of PKC βII inhibition (Caliper mobility-shift kinase assay, Fluorescein-RFARKGSLRQKNV peptide substrate)). Settings: example compounds at a final concentration of 1.14 μM (±0.15 μM).
T1 construct: Active human full-length recombinant PKC βII; purchased Invitrogen GmbH, Darmstadt, Germany
Assay type: biochemical
Procedure, shortened: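 Compounds were tested at 1.14 μM final. Enzyme was activated by PS, DAG and CaCl2 in Hepes pH 7.4 with MgCl2, with substrate 3 μM and ATP 120 μM as pre-mix concentrations. After 60 min at 32 °C and an EDTA stop, Caliper separation gave fractional turnover, which was normalised to no-compound and no-enzyme controls.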

T1 sequence (P05771 1-673 isoform P05771-2): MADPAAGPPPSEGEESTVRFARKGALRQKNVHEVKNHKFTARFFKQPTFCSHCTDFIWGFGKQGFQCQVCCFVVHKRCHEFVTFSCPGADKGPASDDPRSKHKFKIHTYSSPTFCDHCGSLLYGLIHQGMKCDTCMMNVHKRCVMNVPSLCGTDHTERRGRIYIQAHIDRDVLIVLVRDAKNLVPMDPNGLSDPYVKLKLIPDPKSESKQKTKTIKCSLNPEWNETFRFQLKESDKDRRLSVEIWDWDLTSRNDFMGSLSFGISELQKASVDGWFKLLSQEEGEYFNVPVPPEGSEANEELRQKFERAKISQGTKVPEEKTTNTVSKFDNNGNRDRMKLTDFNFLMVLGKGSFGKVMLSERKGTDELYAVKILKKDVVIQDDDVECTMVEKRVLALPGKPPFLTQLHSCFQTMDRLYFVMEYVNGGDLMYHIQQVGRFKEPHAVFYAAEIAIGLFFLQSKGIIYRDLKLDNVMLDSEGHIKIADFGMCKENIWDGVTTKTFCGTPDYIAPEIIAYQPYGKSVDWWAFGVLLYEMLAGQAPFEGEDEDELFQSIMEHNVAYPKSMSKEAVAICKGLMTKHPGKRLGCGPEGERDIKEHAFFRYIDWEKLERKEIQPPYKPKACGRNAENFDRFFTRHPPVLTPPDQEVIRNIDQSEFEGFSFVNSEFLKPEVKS

Compound	inhibition at 1.14 µM [%]	% Inhibition [%]
Cc1n[nH]c2nc(-c3ccc(O)cc3)cc(C(=O)N3C[C@@H](C)NC[C@@H]3C)c12 [Example 112, ((2S,5R)-2,5-Dimethyl-piperazin-1-yl)-[6-(4-hydroxy-phenyl)-3-methyl-1H-pyrazolo[3,4-b]pyridin-4-yl]-methanone]	92	–
Cc1n[nH]c2nc(-c3ccc(O)cc3)cc(C(=O)N3C[C@H](C)NC[C@H]3C)c12 [Example 81, ((2R,5S)-2,5-Dimethyl-piperazin-1-yl)-[6-(4-hydroxy-phenyl)-3-methyl-1H-pyrazolo[3,4-b]pyridin-4-yl]-methanone]	–	76
Cc1n[nH]c2nc(-c3ccc(O)c(F)c3)cc(C(=O)NC3CN4CCC3CC4)c12 (stereo not shown) [Example 333, 6-(3-Fluoro-4-hydroxy-phenyl)-3-methyl-1H-pyrazolo[3,4-b]pyridine-4-carboxylic acid (1-aza-bicyclo[2.2.2]oct-3-yl)-amide]	67	–
CCc1n[nH]c2nc(-c3ccc(O)cc3)cc(C(=O)N3CCC4(CCNC4)C3)c12 (stereo not shown) [Example 172, (2,7-Diaza-spiro[4.4]non-2-yl)-[3-ethyl-6-(4-hydroxy-phenyl)-1H-pyrazolo[3,4-b]pyridin-4-yl]-methanone]	67	–
Cc1n[nH]c2nc(-c3ccc(O)cc3)cc(C(=O)N[C@@H]3[C@H]4CC[C@H](C4)[C@H]3CN)c12 [Example 228, 6-(4-Hydroxy-phenyl)-3-methyl-1H-pyrazolo[3,4-b]pyridine-4-carboxylic acid (3-aminomethyl-bicyclo[2.2.1]hept-2-yl)-amide]	91	–
Cc1n[nH]c2nc(-c3ccc(O)cc3)cc(C(=O)N3CCNCC3)c12 [Example 53, [6-(4-Hydroxy-phenyl)-3-methyl-1H-pyrazolo[3,4-b]pyridin-4-yl]-piperazin-1-yl-methanone]	92	–
CCc1n[nH]c2nc(-c3ccc(O)cc3)cc(C(=O)N3CCC(NC)C3)c12 (stereo not shown) [Example 178, [3-Ethyl-6-(4-hydroxy-phenyl)-1H-pyrazolo[3,4-b]pyridin-4-yl]-(3-methylamino-pyrrolidin-1-yl)-methanone]	71	–
Cc1n[nH]c2nc(-c3ccc(O)cc3)cc(C(=O)N3CCN(C(=O)C4CCCO4)CC3)c12 (stereo not shown) [Example 280, [6-(4-Hydroxy-phenyl)-3-methyl-1H-pyrazolo[3,4-b]pyridin-4-yl]-[4-(tetrahydro-furan-2-carbonyl)-piperazin-1-yl]-methanone]	88	–
Cc1n[nH]c2nc(-c3ccc(O)cc3)cc(C(=O)N3CCN[C@H](C)C3)c12 [Example 189, [6-(4-Hydroxy-phenyl)-3-methyl-1H-pyrazolo[3,4-b]pyridin-4-yl]-((R)-3-methyl-piperazin-1-yl)-methanone]	96	–
CC[C@H]1CN(C(=O)c2cc(-c3ccc(O)cc3)nc3[nH]nc(C)c23)CCN1 [Example 210, ((S)-3-Ethyl-piperazin-1-yl)-[6-(4-hydroxy-phenyl)-3-methyl-1H-pyrazolo[3,4-b]pyridin-4-yl]-methanone]	100	–
Cc1n[nH]c2nc(-c3ccc(O)cc3)cc(C(=O)N3CCOC4(CCNCC4)C3)c12 [Example 261, [6-(4-Hydroxy-phenyl)-3-methyl-1H-pyrazolo[3,4-b]pyridin-4-yl]-(1-oxa-4,9-diaza-spiro[5.5]undec-4-yl)-methanone]	70	–
Cc1n[nH]c2nc(-c3ccc(O)c(F)c3)cc(C(=O)N3CCNCC3)c12 [Example 7, [6-(3-Fluoro-4-hydroxy-phenyl)-3-methyl-1H-pyrazolo[3,4-b]pyridin-4-yl]-piperazin-1-yl-methanone]	91	–
CCCC[C@H]1CN(C(=O)c2cc(-c3ccc(O)cc3)nc3[nH]nc(C)c23)CCN1 [Example 209, ((S)-3-Butyl-piperazin-1-yl)-[6-(4-hydroxy-phenyl)-3-methyl-1H-pyrazolo[3,4-b]pyridin-4-yl]-methanone]	97	–
Cc1n[nH]c2nc(-c3ccc(O)cc3)cc(C(=O)N3CCC4(CCNCC4)CC3)c12 [Example 236, (3,9-Diaza-spiro[5.5]undec-3-yl)-[6-(4-hydroxy-phenyl)-3-methyl-1H-pyrazolo[3,4-b]pyridin-4-yl]-methanone]	84	–
Cc1n[nH]c2nc(-c3c(F)cc(O)cc3F)cc(C(=O)N3CCNCC3(C)C)c12 [Example 135, [6-(2,6-Difluoro-4-hydroxy-phenyl)-3-methyl-1H-pyrazolo[3,4-b]pyridin-4-yl]-(2,2-dimethyl-piperazin-1-yl)-methanone]	96	–
CCc1n[nH]c2nc(-c3ccc(O)cc3)cc(C(=O)NC3CC4CCC(C3)N4C)c12 [Example 164, 3-Ethyl-6-(4-hydroxy-phenyl)-1H-pyrazolo[3,4-b]pyridine-4-carboxylic acid ((3R)-8-methyl-8-aza-bicyclo[3.2.1]oct-3-yl)-amide]	–	53
Cc1n[nH]c2nc(-c3ccc(O)cc3)cc(C(=O)N3CCNC(C4CC4)C3)c12 (stereo not shown) [Example 86, (3-Cyclopropyl-piperazin-1-yl)-[6-(4-hydroxy-phenyl)-3-methyl-1H-pyrazolo[3,4-b]pyridin-4-yl]-methanone]	96	–
CCN1CCCN(C(=O)c2cc(-c3ccc(O)cc3)nc3[nH]nc(C)c23)CC1 [Example 281, (4-Ethyl-[1,4]diazepan-1-yl)-[6-(4-hydroxy-phenyl)-3-methyl-1H-pyrazolo[3,4-b]pyridin-4-yl]-methanone]	85	–
CO[C@H]1CNC[C@@H]1NC(=O)c1cc(-c2ccc(O)cc2C)nc2[nH]nc(C)c12 [Example 143, 6-(4-Hydroxy-2-methyl-phenyl)-3-methyl-1H-pyrazolo[3,4-b]pyridine-4-carboxylic acid ((3S,4S)-4-methoxy-pyrrolidin-3-yl)-amide]	84	–

More lines, now with the values ahead:

inhibition at 1.14 µM [%]	% Inhibition [%]	Compound
66	–	Cc1n[nH]c2nc(-c3ccc(O)cc3)cc(C(=O)N3CCN(C)CC3c3ccccc3)c12 (stereo not shown) [Example 372, [6-(4-Hydroxy-phenyl)-3-methyl-1H-pyrazolo[3,4-b]pyridin-4-yl]-(4-methyl-2-phenyl-piperazin-1-yl)-methanone]
88	–	Cc1n[nH]c2nc(-c3ccc(O)cc3F)cc(C(=O)N3CCNC(C)(C)C3)c12 [Example 425, (3,3-Dimethyl-piperazin-1-yl)-[6-(2-fluoro-4-hydroxy-phenyl)-3-methyl-1H-pyrazolo[3,4-b]pyridin-4-yl]-methanone]
62	–	Cc1n[nH]c2nc(-c3ccc(O)c(F)c3)cc(C(=O)N3CC(N)C3)c12 [Example 315, (3-Amino-azetidin-1-yl)-[6-(3-fluoro-4-hydroxy-phenyl)-3-methyl-1H-pyrazolo[3,4-b]pyridin-4-yl]-methanone]
–	63	Cc1n[nH]c2nc(-c3ccc(O)cc3)cc(C(=O)N3CCNC(c4ccccc4)C3)c12 (single isomer, unassigned) [Example 457, [6-(4-Hydroxy-phenyl)-3-methyl-1H-pyrazolo[3,4-b]pyridin-4-yl]-(3-phenyl-piperazin-1-yl)-methanone]
53	–	Cc1n[nH]c2nc(-c3ccc(O)c(F)c3)cc(C(=O)N3C[C@]4(C)CN(C)C[C@](C)(C3)C4O)c12 (stereo partly drawn) [Example 334, [6-(3-Fluoro-4-hydroxy-phenyl)-3-methyl-1H-pyrazolo[3,4-b]pyridin-4-yl]-((1S,5R)-9-hydroxy-1,5,7-trimethyl-3,7-diaza-bicyclo[3.3.1]non-3-yl)-methanone]
92	–	Cc1n[nH]c2nc(-c3ccc(O)cc3F)cc(C(=O)N3C[C@@H](C)N(CC4CCOC4)C[C@@H]3C)c12 (stereo partly drawn) [Example 455, [(2S,5R)-2,5-Dimethyl-4-(tetra-hydro-furan-3-ylmethyl)-piperazin-1-yl]-[6-(2-fluoro-4-hydroxy-phenyl)-3-methyl-1H-pyrazolo[3,4-b]pyridin-4-yl]-methanone]
104	–	Cc1n[nH]c2nc(-c3ccc(O)cc3F)cc(C(=O)N3CC4(CCCC4)NCC3(C)C)c12 [Example 451, (8,8-Dimethyl-6,9-diaza-spiro[4.5]dec-9-yl)-[6-(2-fluoro-4-hydroxy-phenyl)-3-methyl-1H-pyrazolo[3,4-b]pyridin-4-yl]-methanone]
55	–	Cc1n[nH]c2nc(-c3ccc(O)cc3)cc(C(=O)NCC(c3ccccc3)N3CCNCC3)c12 (stereo not shown) [Example 393, 6-(4-Hydroxy-phenyl)-3-methyl-1H-pyrazolo[3,4-b]pyridine-4-carboxylic acid (2-phenyl-2-piperazin-1-yl-ethyl)-amide]
37	–	COc1ccccc1C(=O)N1CCN(C(=O)c2cc(-c3ccc(O)cc3)nc3[nH]nc(C)c23)CC1 [Example 381, [6-(4-Hydroxy-phenyl)-3-methyl-1H-pyrazolo[3,4-b]pyridin-4-yl]-[4-(2-methoxy-benzoyl)-piperazin-1-yl]-methanone]
–	61	Cc1n[nH]c2nc(-c3ccc(O)cc3F)cc(C(=O)N3C[C@@H](c4ccccc4)NC[C@@H]3C)c12 (single isomer, unassigned) [Example 460, [6-(2-Fluoro-4-hydroxy-phenyl)-3-methyl-1H-pyrazolo[3,4-b]pyridin-4-yl]-(trans-2-methyl-5-phenyl-piperazin-1-yl)-methanone]
89	–	CCC[C@H]1CN(C(=O)c2cc(-c3ccc(O)c(F)c3)nc3[nH]nc(C)c23)CCN1 [Example 293, [6-(3-Fluoro-4-hydroxy-phenyl)-3-methyl-1H-pyrazolo[3,4-b]pyridin-4-yl]-((S)-3-propyl-piperazin-1-yl)-methanone]
84	–	Cc1n[nH]c2nc(-c3ccc(O)cc3F)cc(C(=O)N3CCNC(C4CC4)C3)c12 (stereo not shown) [Example 423, (3-Cyclopropyl-piperazin-1-yl)-[6-(2-fluoro-4-hydroxy-phenyl)-3-methyl-1H-pyrazolo[3,4-b]pyridin-4-yl]-methanone]
